Measured values taken from patent publication US20240109853A1 (Shanghai Yao Yuan Biotechnology Co., Ltd., priority 2020, published 2024).
Where two headings read alike, the source gives them in different places.

Legend:
hALPK1-V1092A = hALPK1-V1092A (Homo sapiens (Human), UniProt Q96QP1, V1092A); test: cell-based
Protocol: Accordingly, we used IL-8 secretion as an indicator of activated ALPK1 inhibition in cells expressing these mutations.
Transfection was performed according to manufacturer's protocols (Lipofectamine™ 3000, ThermoFisher). Transfected cells were selected, seeded onto 96-well plates and treated with serial dilutions of the test compounds for 6.5 hr. Following treatment, cell viability was determined using a luminescent cell viability assay (Cell Counting-Lite Assay or “CCL Assay” from Vazyme Biotech Co., Ltd.) and cell free supernatants were collected and analyzed for IL-8 protein by IL-8 ELISA as described above.
Fresh medium and compound were added at 18 hours. Cell viability and IL-8 secretion were determined 6 hours after the second addition of compound, using the CCL assay and IL-8 ELISA as described above.

ALPK1 = ALPK1 (Homo sapiens (Human), UniProt Q96QP1); test: ALPK1 in vitro kinase assay (HTRF of TIFA phosphorylation); format: biochemical
[1] = system: ALPK1-dependent NFκB reporter gene activation in HEK293 cells stably expressing an NF-kB reporter (G9 cells); test: NFκB gene reporter alkaline phosphatase assay; format: cell-based; details: Homo sapiens, HEK293; read-out: NFkB assay IC50
Procedure, shortened: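 HEK293 G9 cells stably carrying an NF-kB alkaline phosphatase reporter were seeded at 10,000 cells/well in Freestyle 293 medium and attached overnight. They were pretreated with serially diluted compound for 30 min, then stimulated with D-glycero-D-manno-6-fluoro-heptose-1β-S-ADP. Reporter phosphatase was read with pNPP; IC50 from logistic fit.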

Chain of ALPK1 (Q96QP1 whole entry): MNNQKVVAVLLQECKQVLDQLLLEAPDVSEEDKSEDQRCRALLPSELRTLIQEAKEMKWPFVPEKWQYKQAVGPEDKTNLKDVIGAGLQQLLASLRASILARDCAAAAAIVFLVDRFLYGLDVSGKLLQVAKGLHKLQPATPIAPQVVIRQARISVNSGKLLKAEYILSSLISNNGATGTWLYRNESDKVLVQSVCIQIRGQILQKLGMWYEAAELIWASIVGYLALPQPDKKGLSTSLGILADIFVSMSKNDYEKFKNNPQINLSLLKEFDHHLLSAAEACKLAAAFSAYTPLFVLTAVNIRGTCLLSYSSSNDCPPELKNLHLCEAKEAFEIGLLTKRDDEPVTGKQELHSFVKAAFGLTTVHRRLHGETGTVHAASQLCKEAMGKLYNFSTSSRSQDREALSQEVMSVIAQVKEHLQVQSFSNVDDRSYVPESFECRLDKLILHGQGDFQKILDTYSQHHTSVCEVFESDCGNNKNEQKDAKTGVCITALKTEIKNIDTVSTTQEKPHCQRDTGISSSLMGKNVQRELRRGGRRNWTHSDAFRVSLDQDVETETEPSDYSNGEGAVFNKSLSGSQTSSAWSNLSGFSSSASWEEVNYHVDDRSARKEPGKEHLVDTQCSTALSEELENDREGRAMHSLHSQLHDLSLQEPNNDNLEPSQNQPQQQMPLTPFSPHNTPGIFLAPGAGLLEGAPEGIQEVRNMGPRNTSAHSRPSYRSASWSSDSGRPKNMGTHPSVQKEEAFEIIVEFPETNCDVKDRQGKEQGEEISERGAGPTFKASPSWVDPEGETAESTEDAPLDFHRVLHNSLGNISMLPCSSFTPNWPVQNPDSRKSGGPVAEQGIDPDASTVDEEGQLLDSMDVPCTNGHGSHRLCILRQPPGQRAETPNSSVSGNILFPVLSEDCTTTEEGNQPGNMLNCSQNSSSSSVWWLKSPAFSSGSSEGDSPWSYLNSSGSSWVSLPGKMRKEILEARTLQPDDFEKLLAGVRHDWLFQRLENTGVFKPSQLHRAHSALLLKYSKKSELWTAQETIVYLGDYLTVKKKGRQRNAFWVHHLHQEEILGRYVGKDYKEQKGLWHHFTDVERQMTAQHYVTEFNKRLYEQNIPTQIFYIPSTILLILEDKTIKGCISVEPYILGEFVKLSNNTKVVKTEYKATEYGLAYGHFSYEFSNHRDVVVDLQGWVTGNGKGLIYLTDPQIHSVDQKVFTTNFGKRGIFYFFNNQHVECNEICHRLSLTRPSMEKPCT
Chain of hALPK1-V1092A (Q96QP1 whole entry V1092A): as the sequence (Q96QP1 whole entry) above, with V1092A counted along it

Row | Compound | IC50 (hALPK1-V1092A) [nM] | IC50 (ALPK1; ALPK1 2 nM, TIFA substrate, ADP-Heptose activator, HTRF readout) [nM] | IC50 [1] [nM] | IC50 (ALPK1) [nM]
1 | C#C[C@@](C)(c1ccc(Cl)cc1)c1csc(NC(=O)c2ccc(N3CCNCC3)cc2)n1 (stereo in doubt) [Example B067, N-(4-(2-(4-chlorophenyl)but-3-yn-2-yl)thiazol-2-yl)-4-(piperazin-1-yl)benzamide] | 215 | 90 |  | 
2 | CCNC(=O)Nc1nc(C(C)(C)c2ccc(OC)cc2)cs1 [Example A242, 1-ethyl-3-(4-(2-(4-methoxyphenyl)propan-2-yl)thiazol-2-yl)urea] |  |  | 980 | 42
3 | C#CC(C)(c1ccc(Cl)cc1)c1csc(NC(=O)NCCS(N)(=O)=O)n1 (stereo not shown) [Example A243, 2-(3-(4-(2-(4-chlorophenyl)but-3-yn-2-yl)thiazol-2-yl)ureido)ethane-1-sulfonamide] |  |  | 590 | 23
4 | C#C[C@](C)(c1ccc(Cl)cc1)c1csc(NC(=O)N2CC(c3ccc(N4CCNCC4)c(F)c3)C2)n1 [Example A246, (R)-N-(4-(2-(4-chlorophenyl)but-3-yn-2-yl)thiazol-2-yl)-3-(3-fluoro-4-(piperazin-1-yl)phenyl)azetidine-1-carboxamide] |  |  | 1590 | 29
5 | C#C[C@](C)(c1ccc(Cl)cc1)c1csc(NC(=O)NCCC(C)(C)O)n1 [Example A250, (R)-1-(4-(2-(4-chlorophenyl)but-3-yn-2-yl)thiazol-2-yl)-3-(3-hydroxy-3-methylbutyl)urea] |  |  | 1180 | 417
6 | C#CC(C)(c1ccc(Cl)cc1)c1csc(NC(=O)N(CCO)CCO)n1 (stereo not shown) [Example A253, 3-(4-(2-(4-chlorophenyl)but-3-yn-2-yl)thiazol-2-yl)-1,1-bis(2-hydroxyethyl)urea] |  |  | 3050 | 172
7 | C#CC(C)(c1ccc(Cl)cc1)c1csc(NC(=O)N(C)CCO)n1 (stereo not shown) [Example A254, 3-(4-(2-(4-chlorophenyl)but-3-yn-2-yl)thiazol-2-yl)-1-(2-hydroxyethyl)-1-methylurea] |  |  | 2070 | 548
8 | C#C[C@@](C)(c1ccc(OC)cc1)c1csc(NC(=O)N2CC(CO)C2)n1 [Example A256, (S)-3-(hydroxymethyl)-N-(4-(2-(4-methoxyphenyl)but-3-yn-2-yl)thiazol-2-yl)azetidine-1-carboxamide] |  |  | 14300 | 273
9 | C#C[C@](C)(c1ccc(Cl)cc1)c1csc(NC(=O)N2CC(CO)C2)n1 [Example A257, (R)-N-(4-(2-(4-chlorophenyl)but-3-yn-2-yl)thiazol-2-yl)-3-(hydroxymethyl)azetidine-1-carboxamide] |  |  | 2010 | 1550
10 | C#C[C@@](C)(c1ccc(Cl)cc1)c1csc(NC(=O)N2CC(CO)C2)n1 [Example A258, (S)-N-(4-(2-(4-chlorophenyl)but-3-yn-2-yl)thiazol-2-yl)-3-(hydroxymethyl)azetidine-1-carboxamide] |  |  | 1330 | 357
11 | C#CC(C)(c1ccc(Cl)cc1)c1csc(NC(=O)N2CC(CN3CCNCC3)C2)n1 (stereo not shown) [Example A259, N-(4-(2-(4-chlorophenyl)but-3-yn-2-yl)thiazol-2-yl)-3-(piperazin-1-ylmethyl)azetidine-1-carboxamide] |  |  | 440 | 48
12 | C#CC(C)(c1ccc(Cl)cc1)c1csc(NC(=O)NCc2ccc(N3CCNCC3)c(F)c2)n1 (stereo not shown) [Example A262, 1-(4-(2-(4-chlorophenyl)but-3-yn-2-yl)thiazol-2-yl)-3-(3-fluoro-4-(piperazin-1-yl)benzyl)urea] |  |  | 670 | 13
13 | C#CC(C)(c1ccc(Cl)cc1)c1csc(NC(=O)N2CC(CN3CCC(N)CC3)C2)n1 (stereo not shown) [Example A263, 3-((4-aminopiperidin-1-yl)methyl)-N-(4-(2-(4-chlorophenyl)but-3-yn-2-yl)thiazol-2-yl)azetidine-1-carboxamide] |  |  | 1440 | 39
14 | C#CC(C)(c1ccc(Cl)cc1)c1csc(NC(=O)N2CCC(CO)CC2)n1 (stereo not shown) [Example A264, N-(4-(2-(4-chlorophenyl)but-3-yn-2-yl)thiazol-2-yl)-4-(hydroxymethyl)piperidine-1-carboxamide] |  |  | 2810 | 1370
15 | C#CC(C)(c1ccc(Cl)cc1)c1csc(NC(=O)N2CCC(N)CC2)n1 (stereo not shown) [Example A265, 4-amino-N-(4-(2-(4-chlorophenyl)but-3-yn-2-yl)thiazol-2-yl)piperidine-1-carboxamide] |  |  | 2900 | 4970
16 | C#CC(C)(c1ccc(Cl)cc1)c1csc(NC(=O)NCC(C)(C)O)n1 (stereo not shown) [Example A268, 1-(4-(2-(4-chlorophenyl)but-3-yn-2-yl)thiazol-2-yl)-3-(2-hydroxy-2-methylpropyl)urea] |  |  | 1310 | 218
17 | C#CC(C)(c1ccc(Cl)cc1)c1csc(NC(=O)N2CCC(O)C2)n1 (stereo not shown) [Example A269, N-(4-(2-(4-chlorophenyl)but-3-yn-2-yl)thiazol-2-yl)-3-hydroxypyrrolidine-1-carboxamide] |  |  | 1260 | 881
18 | C#CC(C)(c1ccc(Cl)cc1)c1csc(NC(=O)N2CCC(CO)C2)n1 (stereo not shown) [Example A270, N-(4-(2-(4-chlorophenyl)but-3-yn-2-yl)thiazol-2-yl)-3-(hydroxymethyl)pyrroli-dine-1-carboxamide] |  |  | 1970 | 904

Row | Compound | IC50 (hALPK1-V1092A) [nM] | IC50 (ALPK1; ALPK1 2 nM, TIFA substrate, ADP-Heptose activator, HTRF readout) [nM] | IC50 [1] [nM] | IC50 (ALPK1) [nM]
19 | C#CC(C)(c1ccc(Cl)cc1)c1csc(NC(=O)NO)n1 (stereo not shown) [Example A271, 1-(4-(2-(4-chlorophenyl)but-3-yn-2-yl)thiazol-2-yl)-3-hydroxyurea] |  |  | 730 | 493
20 | C#CC(C)(c1ccc(Cl)cc1)c1nc(NC(=O)NCCO)sc1F (stereo not shown) [Example A279, 1-(4-(2-(4-chlorophenyl)but-3-yn-2-yl)-5-fluorothiazol-2-yl)-3-(2-hydroxyethyl)urea] |  |  | 4230 | 222
21 | C#C[C@@](C)(c1ccc(F)cc1)c1csc(NC(=O)NCCO)n1 [Example A283, 1-(4-(2-(4-fluorophenyl)but-3-yn-2-yl)thiazol-2-yl)-3-(2-hydroxyethyl)urea] |  |  | 1700 | 550
22 | C#C[C@](C)(c1ccc(F)cc1)c1csc(NC(=O)NCCS(N)(=O)=O)n1 [Example A284, 2-(3-(4-(2-(4-fluorophenyl)but-3-yn-2-yl)thiazol-2-yl)ureido)ethanesulfona-mide] |  |  | 2600 | 666
23 | C#C[C@@](C)(c1ccc(F)cc1)c1csc(NC(=O)NCCS(N)(=O)=O)n1 [Example A285, 2-(3-(4-(2-(4-fluorophenyl)but-3-yn-2-yl)thiazol-2-yl)ureido)ethanesulfona-mide] |  |  | 1360 | 350
24 | C#C[C@](C)(c1ccc(Cl)cc1)c1csc(NC(=O)NCCS(N)(=O)=O)n1 [Example A288, 2-(3-(4-(2-(4-chlorophenyl)but-3-yn-2-yl)thiazol-2-yl)ureido)ethanesulfona-mide] |  |  | 1210 | 270
25 | C#C[C@@](C)(c1ccc(Cl)cc1)c1csc(NC(=O)NC2(CO)CC2)n1 [Example A295, 1-(4-(2-(4-chlorophenyl)but-3-yn-2-yl)thiazol-2-yl)-3-(1-(hydroxymethyl)cyclopro-pyl)urea] |  |  | 1790 | 522
26 | C#C[C@](C)(c1ccc(Cl)cc1)c1csc(NC(=O)NC2(CO)CC2)n1 [Example A296] |  |  | 4790 | 114
27 | [2H]c1sc(NC(=O)NCCO)nc1[C@@](C)(C#C)c1ccc(Cl)cc1 [Example A299, 1-(4-(2-(4-chlorophenyl)but-3-yn-2-yl)thiazol-2-yl)-3-(2-hydroxyethyl)urea] |  |  | 460 | 58
28 | [2H]c1sc(NC(=O)NCCO)nc1[C@](C)(C#C)c1ccc(Cl)cc1 [Example A300, 1-(4-(2-(4-chlorophenyl)but-3-yn-2-yl)thiazol-2-yl)-3-(2-hydroxyethyl)urea] |  |  | 3010 | 341
29 | C#C[C@](C)(c1ccc(Cl)cc1)c1csc(NC(=O)NC[C@@H](O)CO)n1 [Example A301, 1-(4-(2-(4-chlorophenyl)but-3-yn-2-yl)thiazol-2-yl)-3-((R)-2,3-dihydroxypropyl)urea] |  |  | 2220 | 354
30 | C#C[C@](C)(c1ccc(Cl)cc1)c1csc(NC(=O)NC[C@H](O)CO)n1 [Example A302, 1-(4-(2-(4-chlorophenyl)but-3-yn-2-yl)thiazol-2-yl)-3-((S)-2,3-dihydroxypropyl)urea] |  |  | 2040 | 417
31 | C#C[C@@](C)(c1ccc(Cl)cc1)c1csc(NC(=O)NC[C@@H](O)CO)n1 [Example A303, 1-(4-(2-(4-chlorophenyl)but-3-yn-2-yl)thiazol-2-yl)-3-((R)-2,3-dihydroxypropyl)urea] |  |  | 660 | 101
32 | C#C[C@@](C)(c1ccc(Cl)cc1)c1csc(NC(=O)NC[C@H](O)CO)n1 [Example A304, 1-(4-(2-(4-chlorophenyl)but-3-yn-2-yl)thiazol-2-yl)-3-((S)-2,3-dihydroxypropyl)urea] |  |  | 520 | 90
33 | C#CC(C)(c1ccc(Cl)cc1)c1csc(NC(=O)N2CCC(O)CC2)n1 (stereo not shown) [Example A307, N-(4-(2-(4-chlorophenyl)but-3-yn-2-yl)thiazol-2-yl)-4-hydroxypiperidine-1-carboxamide] |  |  | 3150 | 2060
34 | C#CC(C)(c1ccc(Cl)cc1)c1csc(NC(=O)N2CCNCC2)n1 (stereo not shown) [Example A308, N-(4-(2-(4-chlorophenyl)but-3-yn-2-yl)thiazol-2-yl)piperazine-1-carboxamide] |  |  | 5330 | 1540
35 | C#CC(C)(c1ccc(Cl)cc1)c1csc(NC(=O)NC2CCN(Cc3ccc(C)cc3)C2)n1 (stereo not shown) [Example A309, 1-(4-(2-(4-chlorophenyl)but-3-yn-2-yl)thiazol-2-yl)-3-(1-(4-methylbenzyl)pyrrolidin-3-yl)urea] |  |  | 4120 | 1410
